{"source": "patent US11578343B2", "about": "“CAS9 proteins including ligand-dependent inteins” (President and Fellows of Harvard College, priority 2014, dated 2023)", "assay_type_in_all_cases": "cell-based, human", "key": {"[1]": {"system": "EMX, VEGF, and CLTA genomic loci", "experiment": "High-throughput DNA sequencing of genome modifications, summary over on-target and off-target sites", "experimental": "(§1) We assayed these Cas9:sgRNA combinations in human cells for their ability to modify the three on-target loci as well as 11 known off-target genomic sites (Table 3)^4,5,10,13. Cells were treated with or without 1 μM 4-HT during transfection, and after 12 h the media was replaced with fresh media lacking 4-HT. […] Genomic DNA was isolated 60 h post-transfection and analyzed by high-throughput DNA sequencing\n(§2) High-throughput DNA sequencing of genome modifications. HEK293-GFP stable cells were transfected with plasmids expressing Cas9 (500 ng) and sgRNA (125 ng) as described above. […] 4-HT (1 μM final), where appropriate, was added during transfection. 12 h after transfection, the media was replaced with full serum media without 4-HT. Genomic DNA was isolated and pooled from three biological replicates 60 h after transfection using a previously reported^11 protocol with a DNAdvance Kit (Agencourt). 150 ng or 200 ng of genomic DNA was used as a template to amplify by PCR the on-target and off-target genomic sites with flanking HTS primer pairs described previously^11. PCR products were purified using RapidTips (Diffinity Genomics) and quantified using the PicoGreen dsDNA Assay Kit (Invitrogen). Purified DNA was PCR amplified with primers containing sequencing adaptors, purified with the MinElute PCR Purification Kit (Qiagen) and AMPure XP PCR Purification (Agencourt). Samples were sequenced on a MiSeq high-throughput DNA sequencer (Illumina), and sequencing data was analyzed as described previously^4.\n(§3) Sensitivity limit of off-target cleavage assays. We used paired end sequencing to identify indels caused by genomic on- and off-target cleavage. […] A 1 ng sample of human gDNA represents only ˜330 unique genomes, and thus only ˜330 unique copies of each genomic site are present. PCR amplification for each genomic target was performed on a total of 150 ng or 200 ng of input gDNA, which provides amplicons derived from at most 50,000 or 65,000 unique gDNA copies, respectively. Therefore, the high-throughput sequencing assay cannot detect rare genome modification events that occur at a frequency of less than approximately 1 in 50,000 (0.002%). When comparing between two conditions, such as wt Cas9 vs. intein-Cas9, this threshold becomes approximately 10 in 50,000 (0.02%) when using the Fisher exact test and a conservative multiple comparison correction (Bonferroni with 14 samples). See also Minoche, A. E., Dohm, J. C., & Himmelbauer, H. Evaluation of genomic high-throughput sequencing data generated on Illumina HiSeq and Genome Analyzer systems. Genome Biology 12, R112 (2011)."}, "EMX On": {"system": "EMX On", "experiment": "High-throughput DNA sequencing of genome modifications", "conditions": "500 ng Cas9 plasmid; for Mod. Freq (indels/total sequences), EMX On: Table 4", "experimental": "as §1, §2, §3"}, "EMX Off 2": {"system": "EMX Off 2", "experiment": "High-throughput DNA sequencing of genome modifications", "conditions": "500 ng Cas9 plasmid; for Mod. Freq (indels/total sequences), EMX Off 2: Table 4", "experimental": "as §1, §2, §3"}, "CLTA Off 2": {"system": "CLTA Off 2", "experiment": "High-throughput DNA sequencing of genome modifications", "conditions": "500 ng Cas9 plasmid; for Mod. Freq (indels/total sequences), CLTA Off 2: Table 4", "experimental": "as §1, §2, §3"}, "VEGF Off 2": {"system": "VEGF Off 2", "experiment": "High-throughput DNA sequencing of genome modifications", "conditions": "500 ng Cas9 plasmid; for Mod. Freq (indels/total sequences), VEGF Off 2: Table 4", "experimental": "as §1, §2, §3"}, "VEGF Off 3": {"system": "VEGF Off 3", "experiment": "High-throughput DNA sequencing of genome modifications", "conditions": "500 ng Cas9 plasmid; for Mod. Freq (indels/total sequences), VEGF Off 3: Table 4", "experimental": "as §1, §2, §3"}, "VEGF On": {"system": "VEGF On", "experiment": "High-throughput DNA sequencing of genome modifications", "conditions": "500 ng Cas9 plasmid; for Mod. Freq (indels/total sequences), VEGF On: Table 4", "experimental": "as §1, §2, §3"}, "CLTA Off 3": {"system": "CLTA Off 3", "experiment": "High-throughput DNA sequencing of genome modifications", "conditions": "500 ng Cas9 plasmid; for Mod. Freq (indels/total sequences), CLTA Off 3: Table 4", "experimental": "as §1, §2, §3"}, "EMX Off 1": {"system": "EMX Off 1", "experiment": "High-throughput DNA sequencing of genome modifications", "conditions": "500 ng Cas9 plasmid; for Mod. Freq (indels/total sequences), EMX Off 1: Table 4", "experimental": "as §1, §2, §3"}, "EMX Off 3": {"system": "EMX Off 3", "experiment": "High-throughput DNA sequencing of genome modifications", "conditions": "500 ng Cas9 plasmid; for Mod. Freq (indels/total sequences), EMX Off 3: Table 4", "experimental": "as §1, §2, §3"}, "CLTA Off 1": {"system": "CLTA Off 1", "experiment": "High-throughput DNA sequencing of genome modifications", "conditions": "500 ng Cas9 plasmid; for Mod. Freq (indels/total sequences), CLTA Off 1: Table 4", "experimental": "as §1, §2, §3"}, "CLTA On": {"system": "CLTA On", "experiment": "High-throughput DNA sequencing of genome modifications", "conditions": "500 ng Cas9 plasmid; for Mod. Freq (indels/total sequences), CLTA On: Table 4", "experimental": "as §1, §2, §3"}, "VEGF Off 4": {"system": "VEGF Off 4", "experiment": "High-throughput DNA sequencing of genome modifications", "conditions": "500 ng Cas9 plasmid; for Mod. Freq (indels/total sequences), VEGF Off 4: Table 4", "experimental": "as §1, §2, §3"}, "EMX Off 4": {"system": "EMX Off 4", "experiment": "High-throughput DNA sequencing of genome modifications", "conditions": "500 ng Cas9 plasmid; for Mod. Freq (indels/total sequences), EMX Off 4: Table 4", "experimental": "as §1, §2, §3"}, "VEGF Off 1": {"system": "VEGF Off 1", "experiment": "High-throughput DNA sequencing of genome modifications", "conditions": "500 ng Cas9 plasmid; for Mod. Freq (indels/total sequences), VEGF Off 1: Table 4", "experimental": "as §1, §2, §3"}}, "data": [{"substance": "intein(Ser219)-Cas9: Cas9 with 37R3-2 intein replacing Ser219 (SEQ ID NO: 30)", "values": [{"measurement": "Activity compared to wild-type Cas9", "setting": "[1]; absence of 4-HT", "result": "much less active"}, {"measurement": "Activity compared to wild-type Cas9", "setting": "[1]; presence of 4-HT", "result": "slightly less active than wild-type Cas9"}, {"measurement": "Mod. Freq (indels/total sequences), EMX On", "setting": "EMX On; +4-HT (1 μM, 12 h)", "result": 13.57, "unit": "%"}, {"measurement": "Mod Freq (indels/total sequences), EMX On", "setting": "EMX On; +4-HT, Table 6", "result": 8.25, "unit": "%"}, {"measurement": "Mod. Freq (indels/total sequences), EMX On", "setting": "EMX On; −4-HT", "result": 1.87, "unit": "%"}, {"measurement": "Mod. Freq (indels/total sequences), EMX Off 2", "setting": "EMX Off 2; +4-HT (1 μM, 12 h)", "result": 0.04, "unit": "%"}, {"measurement": "Mod Freq (indels/total sequences), EMX Off 2", "setting": "EMX Off 2; +4-HT, Table 6", "result": 0.04, "unit": "%"}, {"measurement": "Mod. Freq (indels/total sequences), EMX Off 2", "setting": "EMX Off 2; −4-HT", "result": 0.02, "unit": "%"}, {"measurement": "Mod. Freq (indels/total sequences), CLTA Off 2", "setting": "CLTA Off 2; +4-HT (1 μM, 12 h)", "result": 0.00, "unit": "%"}, {"measurement": "Mod Freq (indels/total sequences), CLTA Off 2", "setting": "CLTA Off 2; +4-HT, Table 6", "result": 0.00, "unit": "%"}, {"measurement": "Mod. Freq (indels/total sequences), CLTA Off 2", "setting": "CLTA Off 2; −4-HT", "result": 0.00, "unit": "%"}, {"measurement": "Mod. Freq (indels/total sequences), VEGF Off 2", "setting": "VEGF Off 2; +4-HT (1 μM, 12 h)", "result": 1.49, "unit": "%"}, {"measurement": "Mod Freq (indels/total sequences), VEGF Off 2", "setting": "VEGF Off 2; +4-HT, Table 6", "result": 0.90, "unit": "%"}, {"measurement": "Mod. Freq (indels/total sequences), VEGF Off 2", "setting": "VEGF Off 2; −4-HT", "result": 0.08, "unit": "%"}, {"measurement": "Mod. Freq (indels/total sequences), VEGF Off 3", "setting": "VEGF Off 3; +4-HT (1 μM, 12 h)", "result": 0.37, "unit": "%"}, {"measurement": "Mod Freq (indels/total sequences), VEGF Off 3", "setting": "VEGF Off 3; +4-HT, Table 6", "result": 0.16, "unit": "%"}, {"measurement": "Mod. Freq (indels/total sequences), VEGF Off 3", "setting": "VEGF Off 3; −4-HT", "result": 0.04, "unit": "%"}, {"measurement": "Mod. Freq (indels/total sequences), VEGF On", "setting": "VEGF On; +4-HT (1 μM, 12 h)", "result": 3.66, "unit": "%"}, {"measurement": "Mod Freq (indels/total sequences), VEGF On", "setting": "VEGF On; +4-HT, Table 6", "result": 3.17, "unit": "%"}, {"measurement": "Mod. Freq (indels/total sequences), VEGF On", "setting": "VEGF On; −4-HT", "result": 1.05, "unit": "%"}, {"measurement": "Mod. Freq (indels/total sequences), CLTA Off 3", "setting": "CLTA Off 3; +4-HT (1 μM, 12 h)", "result": 0.03, "unit": "%"}, {"measurement": "Mod Freq (indels/total sequences), CLTA Off 3", "setting": "CLTA Off 3; +4-HT, Table 6", "result": 0.01, "unit": "%"}, {"measurement": "Mod. Freq (indels/total sequences), CLTA Off 3", "setting": "CLTA Off 3; −4-HT", "result": 0.00, "unit": "%"}, {"measurement": "Mod. Freq (indels/total sequences), EMX Off 1", "setting": "EMX Off 1; +4-HT (1 μM, 12 h)", "result": 0.42, "unit": "%"}, {"measurement": "Mod Freq (indels/total sequences), EMX Off 1", "setting": "EMX Off 1; +4-HT, Table 6", "result": 0.20, "unit": "%"}, {"measurement": "Mod. Freq (indels/total sequences), EMX Off 1", "setting": "EMX Off 1; −4-HT", "result": 0.01, "unit": "%"}, {"measurement": "Mod. Freq (indels/total sequences), EMX Off 3", "setting": "EMX Off 3; +4-HT (1 μM, 12 h)", "result": 0.77, "unit": "%"}, {"measurement": "Mod Freq (indels/total sequences), EMX Off 3", "setting": "EMX Off 3; +4-HT, Table 6", "result": 0.54, "unit": "%"}, {"measurement": "Mod. Freq (indels/total sequences), EMX Off 3", "setting": "EMX Off 3; −4-HT", "result": 0.05, "unit": "%"}, {"measurement": "Mod. Freq (indels/total sequences), CLTA Off 1", "setting": "CLTA Off 1; +4-HT (1 μM, 12 h)", "result": 0.36, "unit": "%"}, {"measurement": "Mod Freq (indels/total sequences), CLTA Off 1", "setting": "CLTA Off 1; +4-HT, Table 6", "result": 0.23, "unit": "%"}, {"measurement": "Mod. Freq (indels/total sequences), CLTA Off 1", "setting": "CLTA Off 1; −4-HT", "result": 0.01, "unit": "%"}, {"measurement": "Mod. Freq (indels/total sequences), CLTA On", "setting": "CLTA On; +4-HT (1 μM, 12 h)", "result": 14.48, "unit": "%"}, {"measurement": "Mod Freq (indels/total sequences), CLTA On", "setting": "CLTA On; +4-HT, Table 6", "result": 9.13, "unit": "%"}, {"measurement": "Mod. Freq (indels/total sequences), CLTA On", "setting": "CLTA On; −4-HT", "result": 4.30, "unit": "%"}, {"measurement": "Mod. Freq (indels/total sequences), VEGF Off 4", "setting": "VEGF Off 4; +4-HT (1 μM, 12 h)", "result": 3.89, "unit": "%"}, {"measurement": "Mod Freq (indels/total sequences), VEGF Off 4", "setting": "VEGF Off 4; +4-HT, Table 6", "result": 2.03, "unit": "%"}, {"measurement": "Mod. Freq (indels/total sequences), VEGF Off 4", "setting": "VEGF Off 4; −4-HT", "result": 0.10, "unit": "%"}, {"measurement": "Mod. Freq (indels/total sequences), EMX Off 4", "setting": "EMX Off 4; +4-HT (1 μM, 12 h)", "result": 3.16, "unit": "%"}, {"measurement": "Mod Freq (indels/total sequences), EMX Off 4", "setting": "EMX Off 4; +4-HT, Table 6", "result": 2.18, "unit": "%"}, {"measurement": "Mod. Freq (indels/total sequences), EMX Off 4", "setting": "EMX Off 4; −4-HT", "result": 0.19, "unit": "%"}, {"measurement": "Mod. Freq (indels/total sequences), VEGF Off 1", "setting": "VEGF Off 1; +4-HT (1 μM, 12 h)", "result": 8.50, "unit": "%"}, {"measurement": "Mod Freq (indels/total sequences), VEGF Off 1", "setting": "VEGF Off 1; +4-HT, Table 6", "result": 4.61, "unit": "%"}, {"measurement": "Mod. Freq (indels/total sequences), VEGF Off 1", "setting": "VEGF Off 1; −4-HT", "result": 0.43, "unit": "%"}]}]}
